{"source": "patent US20210235699A1", "about": "“Adjuvant Compositions Comprising a Tetramethylguanidine and a 4-Isothiazolin-3-One” (Lonza, LLC, priority 2018, published 2021)", "key": {"[1]": {"test_system": "fungal test inoculum: Aspergillus niger, Penicillium funiculosum, Candida albicans", "test": "Fungal challenge test (ASTM D2574-97, modified) in standard water based interior paint", "type": "cell-based", "parameters": "key to Streak plate rank, 2nd inoculation 72 h / Streak plate rank, 1st inoculation 72 h / Streak plate rank, 1st inoculation 24 h / Streak plate rank, 2nd inoculation 24 h / Streak plate rank, 3rd inoculation 24 h: 0 = no growth; 1 = 1-5 Colony Forming Unit (cfu); 2 = 6-15 cfu; 3 = 16-30 cfu; 4 = 31-45 cfu; 5 = greater than 45 cfu; 5c = Confluent Growth", "conditions": "for Dilution plate count, 3rd inoculation 72 h / Streak plate rank, 3rd inoculation 24 h: inoculum 0.50%; for effect of guanidine on fungicidal activity of 4-isothiazolin-3-ones (in words): in combination with BIT and BBIT, Tables 4 and 6", "method": "(§1) The following bacterial and fungal challenge tests were performed to ascertain whether low concentrations of 4-isothiazolin-3-one biocidal active compounds, pyrithione, coumarin or guanidine adjuvant are sufficient to prevent microbial contamination of final products when deliberately inoculated with spoilage microbes.\n(§2) The tests were performed according to ASTM standard D2574-97 (Standard Test Method for Resistance of Emulsion Paints in the Container to Attack by Microorganisms, ASTM International, West Conshohocken, Pa.), with higher inoculation volumes and frequency. A standard water based interior paint was used as the test substrate. Sample sizes of 20 g test substrate were used and the test samples were prepared in a sterile 30 mL square Nalgene bottle.\nFungal lawns were grown on Potato Dextrose Agar (PDA) or Sabouraud Dextrose Agar (SAB). Individual fungal spore suspensions were harvested by adding 10 mL of sterile 0.05% Triton X to fungal lawns. The lawns were then gently agitated by rubbing a sterile swab on the lawn, being careful not to puncture the agar. The liquid was then aseptically transferred to a sterile bottle containing sterile glass beads. The top of the bottle was closed and the bottle shaken vigorously to break up any chunks in the suspension. The shaken spore suspension was decanted through sterile fibers into another sterile bottle. The decanted spore suspension was counted using a hemocytometer. Once the spore counts were determined, each suspension was diluted in order to obtain 10^6 spore/mL. Each diluted fungal suspension was poured into a sterile container.\n(§3) The following microorganisms were used for inoculation of the tested samples:\nFor the bacterial challenge testing, each sample was inoculated with a combined bacterial test inoculum volume equivalent to 10% of the total initial sample volume for the initial inoculation, 5% of the total initial sample volume for the second inoculation and 2.5% of the total initial sample volume for the third inoculation. […] Samples were inoculated every 96 h.\n(§4) Concentrations of biocidal active compounds and adjuvants refer to the final concentration in the test samples prior to the first inoculation.\n(§5) The efficacy of the added agent in each sample was monitored by means of a streak plate test after 24 hours (all inoculations) and 72 hours of inoculation (first and second inoculation). At 72 hours of the third inoculation performed, a dilution plate count was performed in order to obtain a quantitative measurement of contamination (cfu/mL). A count of less than 10 colony forming units per mL ([…]) is considered to show no measurable contamination. For the streak plate tests, bacterial samples were streaked on Tryptic Soy Agar (TSA) and incubated for 48 hours at 30° C. before reading. Fungal samples were streaked on Potato Dextrose Agar (PDA) and incubated for 5 days at 25° C. before reading.\n(§6) The streak plates were ranked from 0-5c according to the degree of microbial growth:\n(§7) The challenge tests were performed as described above."}, "[2]": {"test_system": "combined bacterial test inoculum: Acinetobacter calcoaceticus, Escherichia coli, Pseudomonas aeruginosa, Enterobacter cloacae", "test": "Bacterial challenge test (ASTM D2574-97, modified) in standard water based interior paint", "type": "cell-based", "parameters": "key to Streak plate rank, 1st inoculation 24 h / Streak plate rank, 1st inoculation 72 h / Streak plate rank, 2nd inoculation 72 h / Streak plate rank, 3rd inoculation 24 h: 0 = no growth; 1 = 1-5 Colony Forming Unit (cfu); 2 = 6-15 cfu; 3 = 16-30 cfu; 4 = 31-45 cfu; 5 = greater than 45 cfu; 5c = Confluent Growth", "conditions": "for Dilution plate count, 3rd inoculation 72 h / Streak plate rank, 3rd inoculation 24 h: inoculum 2.50%; for Streak plate rank, 2nd inoculation 72 h: inoculum 5%; for Streak plate rank, 1st inoculation 24 h / Streak plate rank, 1st inoculation 72 h: inoculum 10%; for effect of guanidine on bactericidal activity of 4-isothiazolin-3-ones (in words): in combination with BIT and BBIT, Tables 3 and 5", "method": "as §1, §2\nThe bacteria were grown on pH 5, 7, or 9 Trypticase Soy Agar (TSA) lawns. The bacteria were grown individually on TSA and harvested by using sterile buffered water. The bacterial lawns were washed off with 30 mL of sterile water and an equal volume of each individual cell suspension was withdrawn from each serum bottle to make a combined cell suspension. Combined bacterial suspension were about 10^7 cfu/mL, which provides about 10^6 cfu/mL in the sample.\nas §3\nFor the bacterial challenge testing, each sample was inoculated with a combined bacterial test inoculum volume equivalent to 10% of the total initial sample volume for the initial inoculation, 5% of the total initial sample volume for the second inoculation and 2.5% of the total initial sample volume for the third inoculation. Inoculum volumes for the fungal challenge tests were 2%, 1% and 0.5% of the total initial sample volume, respectively. Samples were inoculated every 96 h.\nas §4, §5, §6, §7"}}, "note": "Counter-ions that a name gives are not always drawn. Marks after values point to notes of the source that are not given here.", "data": [{"smiles": "CCCCn1sc2ccccc2c1=O", "note": "[BBIT, N-(n-butyl)-1,2-benzisothiazolin-3-one]", "values": [{"measurement": "Dilution plate count, 3rd inoculation 72 h", "setting": "[1]; 25 ppm", "result": "1.0 × 10^1 cfu/mL"}, {"measurement": "Streak plate rank, 3rd inoculation 24 h", "setting": "[1]; 25 ppm", "result": "2 (2 = 6-15 cfu)"}, {"measurement": "Streak plate rank, 2nd inoculation 72 h", "setting": "[1]; 25 ppm, inoculum 1%", "result": 0}, {"measurement": "Streak plate rank, 1st inoculation 24 h", "setting": "[1]; 25 ppm, inoculum added was 5%", "result": "4* (4 = 31-45 cfu)"}, {"measurement": "Streak plate rank, 1st inoculation 72 h", "setting": "[1]; 25 ppm, inoculum added was 5%", "result": "1* (1 = 1-5 Colony Forming Unit (cfu))"}, {"measurement": "Dilution plate count, 3rd inoculation 72 h", "setting": "[1]; 50 ppm", "result": "<10", "unit": "cfu/mL"}, {"measurement": "Streak plate rank, 3rd inoculation 24 h", "setting": "[1]; 50 ppm", "result": "1 (1 = 1-5 Colony Forming Unit (cfu))"}, {"measurement": "Streak plate rank, 2nd inoculation 72 h", "setting": "[1]; 50 ppm, inoculum 1%", "result": 0}, {"measurement": "Streak plate rank, 1st inoculation 24 h", "setting": "[1]; 50 ppm, inoculum added was 5%", "result": "3* (3 = 16-30 cfu)"}, {"measurement": "Streak plate rank, 1st inoculation 72 h", "setting": "[1]; 50 ppm, inoculum added was 5%", "result": "1* (1 = 1-5 Colony Forming Unit (cfu))"}, {"measurement": "Dilution plate count, 3rd inoculation 72 h", "setting": "[1]; 100 ppm", "result": "<10", "unit": "cfu/mL"}, {"measurement": "Streak plate rank, 3rd inoculation 24 h", "setting": "[1]; 100 ppm", "result": "1 (1 = 1-5 Colony Forming Unit (cfu))"}, {"measurement": "Streak plate rank, 2nd inoculation 72 h", "setting": "[1]; 100 ppm, inoculum 1%", "result": 0}, {"measurement": "Streak plate rank, 1st inoculation 24 h", "setting": "[1]; 100 ppm, inoculum added was 5%", "result": "4* (4 = 31-45 cfu)"}, {"measurement": "Streak plate rank, 1st inoculation 72 h", "setting": "[1]; 100 ppm, inoculum added was 5%", "result": "1* (1 = 1-5 Colony Forming Unit (cfu))"}, {"measurement": "Dilution plate count, 3rd inoculation 72 h", "setting": "[2]; 25 ppm", "result": "8.3 × 10^6 cfu/mL"}, {"measurement": "Streak plate rank, 3rd inoculation 24 h", "setting": "[2]; 25 ppm", "result": 5, "unit": "c"}, {"measurement": "Streak plate rank, 2nd inoculation 72 h", "setting": "[2]; 25 ppm", "result": 5, "unit": "c"}, {"measurement": "Streak plate rank, 1st inoculation 24 h", "setting": "[2]; 25 ppm", "result": 5, "unit": "c"}, {"measurement": "Streak plate rank, 1st inoculation 72 h", "setting": "[2]; 25 ppm", "result": 5, "unit": "c"}, {"measurement": "Dilution plate count, 3rd inoculation 72 h", "setting": "[2]; 50 ppm", "result": "6.0 × 10^6 cfu/mL"}, {"measurement": "Streak plate rank, 3rd inoculation 24 h", "setting": "[2]; 50 ppm", "result": 5, "unit": "c"}, {"measurement": "Streak plate rank, 2nd inoculation 72 h", "setting": "[2]; 50 ppm", "result": 5, "unit": "c"}, {"measurement": "Streak plate rank, 1st inoculation 24 h", "setting": "[2]; 50 ppm", "result": 5, "unit": "c"}, {"measurement": "Streak plate rank, 1st inoculation 72 h", "setting": "[2]; 50 ppm", "result": 5, "unit": "c"}, {"measurement": "Dilution plate count, 3rd inoculation 72 h", "setting": "[2]; 100 ppm", "result": "5.6 × 10^6 cfu/mL"}, {"measurement": "Streak plate rank, 3rd inoculation 24 h", "setting": "[2]; 100 ppm", "result": 5, "unit": "c"}, {"measurement": "Streak plate rank, 2nd inoculation 72 h", "setting": "[2]; 100 ppm", "result": 5, "unit": "c"}, {"measurement": "Streak plate rank, 1st inoculation 24 h", "setting": "[2]; 100 ppm", "result": 5, "unit": "c"}, {"measurement": "Streak plate rank, 1st inoculation 72 h", "setting": "[2]; 100 ppm", "result": 5, "unit": "c"}]}, {"smiles": "CCCCCCN(CCCCCC)C(=N)N.I", "note": "[N,N-dihexylguanidine HI]", "values": [{"measurement": "effect of guanidine on fungicidal activity of 4-isothiazolin-3-ones (in words)", "setting": "[1]", "result": "not achieved"}, {"measurement": "effect of guanidine on bactericidal activity of 4-isothiazolin-3-ones (in words)", "setting": "[2]", "result": "not achieved"}]}, {"smiles": "CNC(=N)N", "note": "[methylguanidine HCl, Methylguanidine HCl]", "values": [{"measurement": "effect of guanidine on fungicidal activity of 4-isothiazolin-3-ones (in words)", "setting": "[1]", "result": "not achieved"}, {"measurement": "effect of guanidine on bactericidal activity of 4-isothiazolin-3-ones (in words)", "setting": "[2]", "result": "not achieved"}]}, {"smiles": "[Na+].[O-][n+]1ccccc1[S-]", "note": "[NaPT, sodium pyrithione]", "values": [{"measurement": "Dilution plate count, 3rd inoculation 72 h", "setting": "[1]; 80 ppm", "result": "<10", "unit": "cfu/mL"}, {"measurement": "Streak plate rank, 3rd inoculation 24 h", "setting": "[1]; 80 ppm", "result": 0}, {"measurement": "Streak plate rank, 2nd inoculation 24 h", "setting": "[1]; 80 ppm, inoculum 1%", "result": 0}, {"measurement": "Streak plate rank, 2nd inoculation 72 h", "setting": "[1]; 80 ppm, inoculum 1%", "result": 0}, {"measurement": "Streak plate rank, 1st inoculation 24 h", "setting": "[1]; 80 ppm, inoculum 2%", "result": 0}, {"measurement": "Streak plate rank, 1st inoculation 72 h", "setting": "[1]; 80 ppm, inoculum 2%", "result": 0}, {"measurement": "Dilution plate count, 3rd inoculation 72 h", "setting": "[2]; 80 ppm", "result": "2.2 × 10^7 cfu/mL"}, {"measurement": "Streak plate rank, 3rd inoculation 24 h", "setting": "[2]; 80 ppm", "result": 5, "unit": "c"}, {"measurement": "Streak plate rank, 2nd inoculation 72 h", "setting": "[2]; 80 ppm", "result": 5, "unit": "c"}, {"measurement": "Streak plate rank, 1st inoculation 24 h", "setting": "[2]; 80 ppm", "result": 5, "unit": "c"}, {"measurement": "Streak plate rank, 1st inoculation 72 h", "setting": "[2]; 80 ppm", "result": 5, "unit": "c"}]}, {"smiles": "O=c1ccc2ccccc2o1", "note": "[Coumarin]", "values": [{"measurement": "Dilution plate count, 3rd inoculation 72 h", "setting": "[1]; 500 ppm", "result": "1.1 × 10^2 cfu/mL"}, {"measurement": "Streak plate rank, 3rd inoculation 24 h", "setting": "[1]; 500 ppm", "result": "4 (4 = 31-45 cfu)"}, {"measurement": "Streak plate rank, 2nd inoculation 72 h", "setting": "[1]; 500 ppm, inoculum 1%", "result": "2 (2 = 6-15 cfu)"}, {"measurement": "Streak plate rank, 1st inoculation 24 h", "setting": "[1]; 500 ppm, inoculum 2%", "result": "3 (3 = 16-30 cfu)"}, {"measurement": "Streak plate rank, 1st inoculation 72 h", "setting": "[1]; 500 ppm, inoculum 2%", "result": "3 (3 = 16-30 cfu)"}, {"measurement": "Dilution plate count, 3rd inoculation 72 h", "setting": "[2]; 500 ppm", "result": "3.5 × 10^6 cfu/mL"}, {"measurement": "Streak plate rank, 3rd inoculation 24 h", "setting": "[2]; 500 ppm", "result": 5, "unit": "c"}, {"measurement": "Streak plate rank, 2nd inoculation 72 h", "setting": "[2]; 500 ppm", "result": 5, "unit": "c"}, {"measurement": "Streak plate rank, 1st inoculation 24 h", "setting": "[2]; 500 ppm", "result": 5, "unit": "c"}, {"measurement": "Streak plate rank, 1st inoculation 72 h", "setting": "[2]; 500 ppm", "result": 5, "unit": "c"}, {"measurement": "bactericidal activity (in words)", "setting": "[2]; used individually, Table 1", "result": "no bactericidal activity"}]}]}
